Test results as given in the supplement of paper PMC11451515.

Assays:
Details in all cases: 48 h
NOMO1 [1] = assay: AUC of viability dose-response curve (% viability x log10 dose units); higher = less sensitive
Method in brief: (§1)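 Viability of medium-adapted leukemia cells was measured by CellTiter-Glo One luminescence after 48 h at 37°C with library compounds in DMSO. Doses were 11 threefold steps from 47 μM to 0.79 nM, in 1536-well plates at 500 or 1000 cells/well. Signals were normalised per plate to DMSO and cell-free wells and fitted with a four-parameter log-logistic model on log10 dose. Area under the curve was integrated by trapezoidal rule, with curves exceeding full viability scaled and failed quality-control curves removed.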

SEM cells [2] = assay: as above
Method in brief: as §1

P12-Ichikawa [3] = assay: as above
Method in brief: as §1

NOMO1 [4] = assay: cell viability relative to DMSO control; higher = less cytotoxic
Method in brief: (§2)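 NOMO1, SEM and P12-Ichikawa leukemia cells spent at least four passages adapting to each medium before use. They were seeded at 500 cells/well (NOMO1, SEM) or 1000 cells/well (P12-Ichikawa) in 5 μl in 1536-well plates and pin-dosed with library compounds in DMSO at 11 threefold steps from 47 μM down to 0.79 nM. After 48 h at 37°C, CellTiter-Glo One luminescence was read. Viability is reported as a percentage of the DMSO wells on each plate, with cell-free wells as background.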

SEM cells [5] = assay: as above
Method in brief: as §2

P12-Ichikawa [6] = assay: as above
Method in brief: as §2

O=C1NC(=O)/C(=C/c2ccc3nccnc3c2)S1
AUC of viability dose-response curve
Details | NOMO1 [1] | P12-Ichikawa [3] | SEM cells [2]
HPLM + 10% dialyzed FBS | 457 | 464 | 441
RPMI 5 mM glucose + 10% FBS | 444 | 443 | 441
RPMI 5 mM glucose + 10% dialyzed FBS | 439 | 453 | 428

cell viability [%]
Details | NOMO1 [4] | P12-Ichikawa [6] | SEM cells [5]
HPLM + 10% dialyzed FBS, 0.000781 µM | 108 | 111 | 117
HPLM + 10% dialyzed FBS, 0.00234 µM | 124 | 111 | 123
HPLM + 10% dialyzed FBS, 0.00702 µM | 116 | 117 | 128
HPLM + 10% dialyzed FBS, 0.0211 µM | 118 | 107 | 114
HPLM + 10% dialyzed FBS, 0.0632 µM | 106 | 115 | 120
HPLM + 10% dialyzed FBS, 0.19 µM | 118 | 122 | 113
HPLM + 10% dialyzed FBS, 0.569 µM | 113 | 102 | 109
HPLM + 10% dialyzed FBS, 1.71 µM | 125 | 116 | 105
HPLM + 10% dialyzed FBS, 5.12 µM | 102 | 103 | 97
HPLM + 10% dialyzed FBS, 15.4 µM | 95.9 | 97.5 | 104
HPLM + 10% dialyzed FBS, 46.1 µM | 89.3 | 99.7 | 102
RPMI 5 mM glucose + 10% FBS, 0.000781 µM | 98.4 | 110 | 120
RPMI 5 mM glucose + 10% FBS, 0.00234 µM | 130 | 112 | 136
RPMI 5 mM glucose + 10% FBS, 0.00702 µM | 109 | 119 | 115
RPMI 5 mM glucose + 10% FBS, 0.0211 µM | 107 | 114 | 126
RPMI 5 mM glucose + 10% FBS, 0.0632 µM | 101 | 115 | 136
RPMI 5 mM glucose + 10% FBS, 0.19 µM | 105 | 109 | 120
RPMI 5 mM glucose + 10% FBS, 0.569 µM | 111 | 98.7 | 128
RPMI 5 mM glucose + 10% FBS, 1.71 µM | 100 | 106 | 115
RPMI 5 mM glucose + 10% FBS, 5.12 µM | 97.1 | 95.2 | 73
RPMI 5 mM glucose + 10% FBS, 15.4 µM | 86.6 | 95.9 | 99.5
RPMI 5 mM glucose + 10% FBS, 46.1 µM | 103 | 91.4 | 103
RPMI 5 mM glucose + 10% dialyzed FBS, 0.000781 µM | 118 | 110 | –
RPMI 5 mM glucose + 10% dialyzed FBS, 0.00234 µM | 109 | 111 | –
RPMI 5 mM glucose + 10% dialyzed FBS, 0.00702 µM | 132 | 126 | –
RPMI 5 mM glucose + 10% dialyzed FBS, 0.0211 µM | 110 | 123 | –
RPMI 5 mM glucose + 10% dialyzed FBS, 0.0632 µM | 111 | 114 | –
RPMI 5 mM glucose + 10% dialyzed FBS, 0.19 µM | 118 | 113 | –
RPMI 5 mM glucose + 10% dialyzed FBS, 0.569 µM | 103 | 115 | –
RPMI 5 mM glucose + 10% dialyzed FBS, 1.71 µM | 106 | 102 | –
RPMI 5 mM glucose + 10% dialyzed FBS, 5.12 µM | 92.6 | 96.2 | –
RPMI 5 mM glucose + 10% dialyzed FBS, 15.4 µM | 88.8 | 104 | –
RPMI 5 mM glucose + 10% dialyzed FBS, 46.1 µM | 95.3 | 97.1 | –

CCC(CCCC)COC(=O)C(\C#N)=C(\c1ccccc1)c2ccccc2 (stereo unspecified)
AUC of viability dose-response curve
Details | NOMO1 [1] | P12-Ichikawa [3] | SEM cells [2]
HPLM + 10% dialyzed FBS | 465 | 463 | 438
RPMI 5 mM glucose + 10% FBS | 439 | 469 | 425
RPMI 5 mM glucose + 10% dialyzed FBS | 431 | 460 | 449

cell viability [%]
Details | NOMO1 [4] | P12-Ichikawa [6] | SEM cells [5]
HPLM + 10% dialyzed FBS, 0.000781 µM | 76.5 | 95.6 | 91.6
HPLM + 10% dialyzed FBS, 0.00234 µM | 102 | 100 | 55.3
HPLM + 10% dialyzed FBS, 0.00702 µM | 84 | 102 | 90.3
HPLM + 10% dialyzed FBS, 0.0211 µM | 117 | 99.3 | 89.3
HPLM + 10% dialyzed FBS, 0.0632 µM | 101 | 106 | 98.8
HPLM + 10% dialyzed FBS, 0.19 µM | 101 | 108 | 93.9
HPLM + 10% dialyzed FBS, 0.569 µM | 98.5 | 112 | 95.9
HPLM + 10% dialyzed FBS, 1.71 µM | 92.8 | 107 | 90.6
HPLM + 10% dialyzed FBS, 5.12 µM | 107 | 113 | 110
HPLM + 10% dialyzed FBS, 15.4 µM | 98.5 | 107 | 99.6
HPLM + 10% dialyzed FBS, 46.1 µM | 107 | 99.3 | 86.3
RPMI 5 mM glucose + 10% FBS, 0.000781 µM | 92.6 | 89.8 | 79.8
RPMI 5 mM glucose + 10% FBS, 0.00234 µM | 91.8 | 95.7 | 44
RPMI 5 mM glucose + 10% FBS, 0.00702 µM | 86.2 | 95.2 | 99
RPMI 5 mM glucose + 10% FBS, 0.0211 µM | 101 | 96.3 | 86.1
RPMI 5 mM glucose + 10% FBS, 0.0632 µM | 101 | 110 | 94.1
RPMI 5 mM glucose + 10% FBS, 0.19 µM | 93 | 104 | 96.6
RPMI 5 mM glucose + 10% FBS, 0.569 µM | 92.5 | 106 | 96.2
RPMI 5 mM glucose + 10% FBS, 1.71 µM | 104 | 99.2 | 97.8
RPMI 5 mM glucose + 10% FBS, 5.12 µM | 97.8 | 95.2 | 95.6
RPMI 5 mM glucose + 10% FBS, 15.4 µM | 109 | 102 | 91.6
RPMI 5 mM glucose + 10% FBS, 46.1 µM | 105 | 94.5 | 88.9
RPMI 5 mM glucose + 10% dialyzed FBS, 0.000781 µM | 87.4 | 87.1 | 88.3
RPMI 5 mM glucose + 10% dialyzed FBS, 0.00234 µM | 85.8 | 84.2 | 46.3
RPMI 5 mM glucose + 10% dialyzed FBS, 0.00702 µM | 84.4 | 97.6 | 103
RPMI 5 mM glucose + 10% dialyzed FBS, 0.0211 µM | 94.6 | 98.5 | 99.7
RPMI 5 mM glucose + 10% dialyzed FBS, 0.0632 µM | 94 | 98.8 | 99.9
RPMI 5 mM glucose + 10% dialyzed FBS, 0.19 µM | 91.7 | 97.2 | 90.3
RPMI 5 mM glucose + 10% dialyzed FBS, 0.569 µM | 90.4 | 101 | 107
RPMI 5 mM glucose + 10% dialyzed FBS, 1.71 µM | 91.5 | 99.5 | 86
RPMI 5 mM glucose + 10% dialyzed FBS, 5.12 µM | 89.1 | 97.3 | 91.5
RPMI 5 mM glucose + 10% dialyzed FBS, 15.4 µM | 87.2 | 99.1 | 106
RPMI 5 mM glucose + 10% dialyzed FBS, 46.1 µM | 96.2 | 95.9 | 107

Oc1cc(-c2nc(-c3ccccc3)[nH]c2-c2ccncc2)ccc1Cl
AUC of viability dose-response curve
Details | NOMO1 [1] | P12-Ichikawa [3] | SEM cells [2]
HPLM + 10% dialyzed FBS | 394 | 438 | 464
RPMI 5 mM glucose + 10% FBS | 451 | 424 | 461
RPMI 5 mM glucose + 10% dialyzed FBS | 420 | 419 | 467

cell viability [%]
Details | NOMO1 [4] | P12-Ichikawa [6] | SEM cells [5]
HPLM + 10% dialyzed FBS, 0.000781 µM | 111 | 109 | 105
HPLM + 10% dialyzed FBS, 0.00234 µM | 119 | 110 | 115
HPLM + 10% dialyzed FBS, 0.00702 µM | 119 | 110 | 118
HPLM + 10% dialyzed FBS, 0.0211 µM | 112 | 115 | 110
HPLM + 10% dialyzed FBS, 0.0632 µM | 123 | 118 | 104
HPLM + 10% dialyzed FBS, 0.19 µM | 120 | 117 | 122
HPLM + 10% dialyzed FBS, 0.569 µM | 108 | 106 | 103
HPLM + 10% dialyzed FBS, 1.71 µM | 84.2 | 101 | 104
HPLM + 10% dialyzed FBS, 5.12 µM | 78.8 | 92.7 | 107
HPLM + 10% dialyzed FBS, 15.4 µM | 49.2 | 82.9 | 100
HPLM + 10% dialyzed FBS, 46.1 µM | 21.4 | 65.7 | 80.3
RPMI 5 mM glucose + 10% FBS, 0.000781 µM | 106 | 122 | 120
RPMI 5 mM glucose + 10% FBS, 0.00234 µM | 104 | 111 | 114
RPMI 5 mM glucose + 10% FBS, 0.00702 µM | 107 | 117 | 115
RPMI 5 mM glucose + 10% FBS, 0.0211 µM | 107 | 122 | 117
RPMI 5 mM glucose + 10% FBS, 0.0632 µM | 121 | 119 | 107
RPMI 5 mM glucose + 10% FBS, 0.19 µM | 103 | 118 | 111
RPMI 5 mM glucose + 10% FBS, 0.569 µM | 109 | 111 | 122
RPMI 5 mM glucose + 10% FBS, 1.71 µM | 102 | 113 | 116
RPMI 5 mM glucose + 10% FBS, 5.12 µM | 107 | 84.7 | 106
RPMI 5 mM glucose + 10% FBS, 15.4 µM | 87.1 | 74.5 | 111
RPMI 5 mM glucose + 10% FBS, 46.1 µM | 32.2 | 45.2 | 45.2
RPMI 5 mM glucose + 10% dialyzed FBS, 0.000781 µM | 101 | – | –
RPMI 5 mM glucose + 10% dialyzed FBS, 0.00234 µM | 107 | – | –
RPMI 5 mM glucose + 10% dialyzed FBS, 0.00702 µM | 121 | – | –
RPMI 5 mM glucose + 10% dialyzed FBS, 0.0211 µM | 107 | – | –
RPMI 5 mM glucose + 10% dialyzed FBS, 0.0632 µM | 123 | – | –
RPMI 5 mM glucose + 10% dialyzed FBS, 0.19 µM | 109 | – | –
RPMI 5 mM glucose + 10% dialyzed FBS, 0.569 µM | 104 | – | –
RPMI 5 mM glucose + 10% dialyzed FBS, 1.71 µM | 92.1 | – | –
RPMI 5 mM glucose + 10% dialyzed FBS, 5.12 µM | 81.3 | – | –
RPMI 5 mM glucose + 10% dialyzed FBS, 15.4 µM | 74.8 | – | –
RPMI 5 mM glucose + 10% dialyzed FBS, 46.1 µM | 32 | – | –
